Earlier results, collected in patent publication US20130324497A1, “COMPOSITIONS AND METHODS FOR TREATING HEPATITIS B VIRUS INFECTION” (priority 2012, published 2013).
“Also recorded” adds a separate entry of the source. Read-outs that look alike come from different tables or passages of the source.

Key:
hepatitis B virus = details: for cumulative rate of resistance: 5 years
[1] = in vivo
[2] = system: HBV mutants resistant to lamivudine

SMILES | cumulative rate of resistance (hepatitis B virus; HBeAg negative patients) | cumulative rate of resistance (hepatitis B virus; HBeAg positive patients) | adefovir-associated nephrotoxicity, patients [1] | 5-year resistance rate (hepatitis B virus; 5-year, monotherapy) | susceptibility of lamivudine-resistant mutants [2]
CC(C)(C)C(=O)OCOP(=O)(COCCn1cnc2c(N)ncnc21)OCOC(=O)C(C)(C)C [adefovir dipivoxil, 9-[2-[[bis[(pivaloyloxy)methoxy]-phosphinyl]-methoxy]ethyl]adenine] | ~29% | about 20% | up to 47% |  | 
Nc1ncnc2c1ncn2CCOCP(=O)(O)O [adefovir] |  |  |  | 20-30% | retain susceptibility; also recorded: remain susceptible
